# Measurements from US20070219234A1, “Thienopyridine Derivatives” (priority 2004, published 2007).
row,SMILES,melting point
1,"CCCNc1ccnc2sc(C(N)=O)c(N)c12 [Example 4, 3-amino-4-(propylamino)thieno[2,3-b]pyridine-2-carboxamide]",214 to 215 °C
2,"CC(C)(C)OC(=O)N1CCCN(c2ccnc3sc(C(N)=O)c(N)c23)CC1 [Example 55, tert-butyl 4-[3-amino-2-(aminocarbonyl)thieno[2,3-b]pyridin-4-yl]-1,4-diazepane-1-carboxylate]",177 to 178 °C
3,"NC(=O)c1sc2nccc(N3CCCN(c4ccncc4)CC3)c2c1N [Example 100, 3-amino-4-(4-pyridin-4-yl-1,4-diazepan-1-yl)thieno[2,3-b]pyridine-2-carboxamide]",288 to 291 °C (dec.)
4,"CC(C)(C)OC(=O)N1CCN(c2ccnc3sc(C(N)=O)c(N)c23)CC1 [Example 37, tert-butyl 4-[3-amino-2-(aminocarbonyl)thieno[2,3-b]pyridin-4-yl]piperazine-1-carboxylate]",198 to 203 °C
5,"Cc1ccc(N2CCCN(c3ccnc4sc(C(N)=O)c(N)c34)CC2)cc1[N+](=O)[O-] [Example 90, 3-amino-4-[4-(4-methyl-3-nitrophenyl)-1,4-diazepan-1-yl]thieno[2,3-b]pyridine-2-carboxamide]",114 to 117 °C
6,"NC(=O)c1sc2nccc(N3CCC(Cc4ccccc4)CC3)c2c1N [Example 18, 3-amino-4-(4-benzylpiperidin-1-yl)thieno[2,3-b]pyridine-2-carboxamide]",220 to 221 °C
7,"Cc1cc(N2CCN(c3ccccc3)CC2)c2c(N)c(C(N)=O)sc2n1 [Example 75, 3-amino-6-methyl-4-(4-phenylpiperazin-1-yl)thieno[2,3-b]pyridine-2-carboxamide]",247 to 250 °C
8,"CC(=O)N1CCCN(c2ccnc3sc(C(N)=O)c(N)c23)CC1 [Example 103, 4-(4-acetyl-1,4-diazepan-1-yl)-3-aminothieno[2,3-b]pyridine-2-carboxamide]",214 to 215 °C
9,"NC(=O)c1sc2nccc(N3CCCN(c4cccc(Cl)c4)CC3)c2c1N [Example 78, 3-amino-4-[4-(3-chlorophenyl)-1,4-diazepan-1-yl]thieno[2,3-b]pyridine-2-carboxamide]",213 to 215 °C
10,"NC(=O)c1sc2nccc(N3CCC(c4ccccc4)CC3)c2c1N [Example 31, 3-amino-4-(4-phenylpiperidin-1-yl)thieno[2,3-b]pyridine-2-carboxamide]",226 to 233 °C
11,"NC(=O)c1sc2nccc(N3CCCCCC3)c2c1N [Example 25, 3-amino-4-azepan-1-ylthieno[2,3-b]pyridine-2-carboxamide]",219 to 221 °C
12,"NC(=O)c1sc2nccc(N3CCOCC3)c2c1N [Example 22, 3-amino-4-morpholin-4-ylthieno[2,3-b]pyridine-2-carboxamide]",232 to 234 °C
13,"NC(=O)c1sc2nccc(N3CCN(c4ccccc4Cl)CC3)c2c1N [Example 54, 3-amino-4-[4-(2-chlorophenyl)piperazin-1-yl]thieno[2,3-b]pyridine-2-carboxamide]",294 to 298 °C (dec.)
14,"NC(=O)c1sc2nccc(N3CCCN(c4ccc(Cl)cc4)CC3)c2c1N [Example 60, 3-amino-4-[4-(4-chlorophenyl)-1,4-diazepan-1-yl]thieno[2,3-b]pyridine-2-carboxamide]",92 to 96 °C
15,"CCN(CC)c1ccnc2sc(C(N)=O)c(N)c12 [Example 2, 3-amino-4-(diethylamino)thieno[2,3-b]pyridine-2-carboxamide]",127 to 129 °C
16,"CC(C)CNc1ccnc2sc(C(N)=O)c(N)c12 [Example 5, 3-amino-4-(isobutylamino)thieno[2,3-b]pyridine-2-carboxamide]",117 to 119 °C

row,SMILES,melting point
1,"NC(=O)c1sc2nccc(N3CCN(c4ccc(Cl)cc4)CC3)c2c1N [Example 52, 3-amino-4-[4-(4-chlorophenyl)piperazin-1-yl]thieno[2,3-b]pyridine-2-carboxamide]",297 °C (dec.)
2,"NC(=O)c1sc2nccc(N3CCc4ccccc4C3)c2c1N [Example 27, 3-amino-4-(3,4-dihydroisoquinoline-2(1H)-yl)thieno[2,3-b]pyridine-2-carboxamide]",244 to 245 °C
3,"Cc1ccc(N2CCCN(c3ccnc4sc(C(N)=O)c(N)c34)CC2)cc1F [Example 71, 3-amino-4-[4-(3-fluoro-4-methylphenyl)-1,4-diazepan-1-yl]thieno[2,3-b]pyridine-2-carboxamide]",79 to 83 °C
4,"NC(=O)c1sc2nccc(N3CCCC(c4ccccc4)C3)c2c1N (stereo not shown) [Example 35, 3-amino-4-(3-phenylpiperidin-1-yl)thieno[2,3-b]pyridine-2-carboxamide]",267 to 269 °C
5,"NC(=O)c1sc2nccc(N3CCCN(c4ccc(OCc5ccccc5)cc4)CC3)c2c1N [Example 79, 3-amino-4-{4-[4-(benzyloxy)phenyl]-1,4-diazepan-1-yl}thieno[2,3-b]pyridine-2-carboxamide]",211 to 213 °C
6,"Cc1cc(N(C)C)c2c(N)c(C(N)=O)sc2n1 [Example 3, 3-amino-4-(dimethylamino)-6-methylthieno[2,3-b]pyridine-2-carboxamide]",167 to 170 °C
7,"COc1ccc(N2CCN(c3ccnc4sc(C(N)=O)c(N)c34)CC2)cc1 [Example 49, 3-amino-4-[4-(4-methoxyphenyl)piperazin-1-yl]thieno[2,3-b]pyridine-2-carboxamide]",275 °C (dec.)
8,"NC(=O)c1sc2nccc(N3CCCN(c4cccc(C(F)(F)F)c4)CC3)c2c1N [Example 86, 3-amino-4-{4-[3-(trifluoromethyl)phenyl]-1,4-diazepan-1-yl}thieno[2,3-b]pyridine-2-carboxamide]",195 to 197 °C
9,"NC(=O)c1sc2nccc(N3CCN(C(=O)c4ccccc4)CC3)c2c1N [Example 51, 3-amino-4-(4-benzoylpiperazin-1-yl)thieno[2,3-b]pyridine-2-carboxamide]",> 300 °C
10,"NC(=O)c1sc2nccc(SC3CCCCC3)c2c1N [Example 115, 3-amino-4-(cyclohexylthio)thieno[2,3-b]pyridine-2-carboxamide]",195 to 197 °C
11,"NC(=O)c1sc2nccc(N3CC[C@@H]4CCCC[C@H]4C3)c2c1N (relative stereo) [Example 28, 3-amino-4-(trans-perhydroisoquinolin-2-yl)thieno[2,3-b]pyridine-2-carboxamide]",285 to 288 °C
12,"CC(C)(C)c1ccc(N2CCCN(c3ccnc4sc(C(N)=O)c(N)c34)CC2)cc1 [Example 92, 3-amino-4-[4-(4-tert-butylphenyl)-1,4-diazepan-1-yl]thieno[2,3-b]pyridine-2-carboxamide]",231 to 232 °C
13,"N#Cc1ccc(N2CCCN(c3ccnc4sc(C(N)=O)c(N)c34)CC2)cc1 [Example 62, 3-amino-4-[4-(4-cyanophenyl)-1,4-diazepan-1-yl]thieno[2,3-b]pyridine-2-carboxamide]",151 to 153 °C
14,"NC(=O)c1sc2nccc(N3CCN(Cc4ccccc4)CC3)c2c1N [Example 43, 3-amino-4-(4-benzylpiperazin-1-yl)thieno[2,3-b]pyridine-2-carboxamide]",241 to 242 °C
15,"NC(=O)c1sc2nccc(N3CCN(c4ccc(F)cc4)CC3)c2c1N [Example 47, 3-amino-4-[4-(4-fluorophenyl)piperazin-1-yl]thieno[2,3-b]pyridine-2-carboxamide]",275 °C (dec.)
